Tested on: yeast genes (level of expressed mRNA)
Assay: DNA chip analysis of expressed mRNA of yeast genes after 2 h culture with a toxic chemical substance
Type: cell-based, Saccharomyces cerevisiae S288C
Details: for The level of expressed mRNA in the presence of chemical substance/ (ratio to absence of chemical substance): stress protein genes, DNA chip
Protocol: Yeast (Saccharomyces cerevtisiae S288C (α SUC2mal mel gap2 CUP1)) were cultured at 25° C. on YPD medium (yeast extract 1%, polypepton 2%, glucose 2%). One of toxic chemical substances was added to the cell at logarithmic growth phase, and the cell was further cultured for two hours. Cell was cultured without any chemical substance in the same condition, and was used as control. Concentrations of the chemical substances were defined to inhibit the growth of the yeast but not lead to death.
After the completion of cultivation, the culture was centrifuged to collect the cells. To the cells, sodium acetate buffer (50 mM sodium acetate, 10 mM EDTA, 1% SDS) was added, and the mixture was shaken at 65° C. for five minutes, followed by returning to room temperature, and obtaining the supernatant, which procedure was repeated two times. To the supernatant, ½ amount of a solution of phenol/chloroform was added, and the mixture was centrifuged to give a supernatant, which was added with an equal amount of chloroform, and the mixture was centrifuged to give a supernatant. To the supernatant, an equal amount of isopropanol containing 0.3 M sodium acetate was added, and the mixture was allowed to stand at room temperature for 30 minutes, after which the mixture was centrifuged to give a sediment of the whole RNAs. Seventy % ethanol was added to the sediment, and the mixture was again centrifuged to give a sediment, which was then dried and dissolved in water. mRNA was isolated from the whole RNAs as followings. In view of the fact that a poly A chain is attached to the 3′ terminus of mRNA, a polynucleotide having a poly T structure which was immobilized on the surface of latex beads was used to trap the mRNA, and then the mRNA was washed and eluted with spine column (Oligotex-dT30<Super>mRNA Purification Kit, Takara). Reverse transcription of the mRNA was conducted with a reverse transcriptase (Super Script II Reverse Transcriptase; catalogue No. 18064-014, GibcoBRL) using fluorescence-labeled nucleotides to give cDNAs that were introduced with Cy3-dUTP or Cy5-dUTP during the reverse transcription.
The labeled cDNAs were dissolved in TE buffer (10 mM Tris-HCl/1 mM EDTA, pH8.0), and the solution was dropped on the DNA chip containing the whole genes of yeast (DNA Chip Research Inc. Japan) so that the cDNAs were hybridized on the DNA chip at 65° C. for over 12 hours. The fluoresces intensity of the DNA chip was read with a scanner, and the ratio relative to the fluorescence intensity resulting from the absence of chemical substance was estimated as the following, which is shown in Tables 1 to 9: [formula]
In the Tables, “Intensity” indicated in the rightmost column is a value of the level of expressed mRNA of each gene in control cells as divided by the average level of the expressions of the whole genes.

## CCCCCCCCCCCCOS(=O)(=O)[O-].[Na+] [(18), sodium lauryl sulfate]
Yeast gene YDL078C, ratio of DNA chip fluorescence intensity to that without chemical substance
  The level of expressed mRNA in the presence of chemical substance/ in its absence, gene YDL078C: 2.0
Yeast gene YDL215C, ratio of DNA chip fluorescence intensity to that without chemical substance
  The level of expressed mRNA in the presence of chemical substance/ (in its absence), gene YDL215C: 1.6
Yeast gene YDL238C
  The level of expressed mRNA in the presence of chemical substance/The level of expressed mRNA in the absence of chemical substance: 1.3
Yeast gene YDR055W
  The level of expressed mRNA in the presence of chemical substance/The level of expressed mRNA in the absence of chemical substance: 1.9
Yeast gene YDR073W, ratio of DNA chip fluorescence intensity to that without chemical substance
  The level of expressed mRNA in the presence of chemical substance/ (in its absence), gene YDR073W: 2.3
Yeast gene YDR079W, energy system protein genes, 2 h culture with the chemical, ratio to control without chemical
  The level of expressed mRNA in the presence of chemical substance/ in its absence, gene YDR079W: 1.3
Yeast gene YDR079W, mitochondria-located protein genes, 2 h culture with chemical
  The level of expressed mRNA in the presence of chemical substance/ (ratio to absence), gene YDR079W: 1.3
Yeast gene YDR084C
  The level of expressed mRNA in the presence of chemical substance/The level of expressed mRNA in the absence of chemical substance: 1.3
Yeast gene YDR085C
  The level of expressed mRNA in the presence of chemical substance/The level of expressed mRNA in the absence of chemical substance: 1.8
Yeast gene YDR104C
  The level of expressed mRNA in the presence of chemical substance/The level of expressed mRNA in the absence of chemical substance: 1.0
Yeast gene YDR115W
  The level of expressed mRNA in the presence of chemical substance/The level of expressed mRNA in the absence of chemical substance: 1.4
Yeast gene YDR259C
  The level of expressed mRNA in the presence of chemical substance/The level of expressed mRNA in the absence of chemical substance: 0.8
Yeast gene YDR297W, ratio of DNA chip fluorescence intensity to that without chemical substance
  The level of expressed mRNA in the presence of chemical substance/ (in its absence), gene YDR297W: 1.9
Yeast gene YDR315C
  The level of expressed mRNA in the presence of chemical substance/The level of expressed mRNA in the absence of chemical substance: 1.2
Yeast gene YDR358W
  The level of expressed mRNA in the presence of chemical substance/The level of expressed mRNA in the absence of chemical substance: 1.9
Yeast gene YDR377W, mitochondria-located protein genes, 2 h culture with chemical
  The level of expressed mRNA in the presence of chemical substance/ (ratio to absence), gene YDR377W: 2.5
Yeast gene YDR387C, ratio of DNA chip fluorescence intensity to that without chemical substance
  The level of expressed mRNA in the presence of chemical substance/ (in its absence), gene YDR387C: 1.1
Yeast gene YDR388W
  The level of expressed mRNA in the presence of chemical substance/The level of expressed mRNA in the absence of chemical substance: 1.3
Yeast gene YDR432W
  The level of expressed mRNA in the presence of chemical substance/The level of expressed mRNA in the absence of chemical substance: 0.7
Yeast gene YDR481C
  The level of expressed mRNA in the presence of chemical substance/The level of expressed mRNA in the absence of chemical substance: 1.4
Yeast gene YDR510W
  The level of expressed mRNA in the presence of chemical substance/The level of expressed mRNA in the absence of chemical substance: 1.5
Yeast gene YEL039C
  The level of expressed mRNA in the presence of chemical substance/ (ratio to absence of chemical substance): 1.1
Yeast gene YEL042W
  The level of expressed mRNA in the presence of chemical substance/The level of expressed mRNA in the absence of chemical substance: 0.8
Yeast gene YEL066W
  The level of expressed mRNA in the presence of chemical substance/The level of expressed mRNA in the absence of chemical substance: 1.1
Yeast gene YER015W, ratio of DNA chip fluorescence intensity to that without chemical substance
  The level of expressed mRNA in the presence of chemical substance/ (in its absence), gene YER015W: 2.6
Yeast gene YER039C
  The level of expressed mRNA in the presence of chemical substance/The level of expressed mRNA in the absence of chemical substance: 1.1
Yeast gene YER057C
  The level of expressed mRNA in the presence of chemical substance/ (ratio to absence of chemical substance): 1.8
Yeast gene YER107C
  The level of expressed mRNA in the presence of chemical substance/The level of expressed mRNA in the absence of chemical substance: 1.2
Yeast gene YER130C
  The level of expressed mRNA in the presence of chemical substance/The level of expressed mRNA in the absence of chemical substance: 2.5
Yeast gene YFL028C
  The level of expressed mRNA in the presence of chemical substance/The level of expressed mRNA in the absence of chemical substance: 1.5
Yeast gene YFL043C
  The level of expressed mRNA in the presence of chemical substance/The level of expressed mRNA in the absence of chemical substance: 1.2
Yeast gene YGL035C, ratio of DNA chip fluorescence intensity to that without chemical substance
  The level of expressed mRNA in the presence of chemical substance/ (in its absence), gene YGL035C: 1.2
Yeast gene YGL115W, ratio of DNA chip fluorescence intensity to that without chemical substance
  The level of expressed mRNA in the presence of chemical substance/ (in its absence), gene YGL115W: 1.2
Yeast gene YGL115W
  The level of expressed mRNA in the presence of chemical substance/ (ratio to absence of chemical substance): 1.2
Yeast gene YGL158W
  The level of expressed mRNA in the presence of chemical substance/The level of expressed mRNA in the absence of chemical substance: 1.1
Yeast gene YGL187C, mitochondria-located protein genes, 2 h culture with chemical
  The level of expressed mRNA in the presence of chemical substance/ (ratio to absence), gene YGL187C: 2.4
Yeast gene YGL205W, ratio of DNA chip fluorescence intensity to that without chemical substance
  The level of expressed mRNA in the presence of chemical substance/ (in its absence), gene YGL205W: 9.1
Yeast gene YGL229C
  The level of expressed mRNA in the presence of chemical substance/The level of expressed mRNA in the absence of chemical substance: 0.9
Yeast gene YGR062C, energy system protein genes, 2 h culture with the chemical, ratio to control without chemical
  The level of expressed mRNA in the presence of chemical substance/ in its absence, gene YGR062C: 1.1
Yeast gene YGR062C, mitochondria-located protein genes, 2 h culture with chemical
  The level of expressed mRNA in the presence of chemical substance/ (ratio to absence), gene YGR062C: 1.1
Yeast gene YGR096W, ratio of DNA chip fluorescence intensity to that without chemical substance
  The level of expressed mRNA in the presence of chemical substance/ (in its absence), gene YGR096W: 1.0
Yeast gene YGR136W
  The level of expressed mRNA in the presence of chemical substance/The level of expressed mRNA in the absence of chemical substance: 1.8
Yeast gene YGR189C
  The level of expressed mRNA in the presence of chemical substance/The level of expressed mRNA in the absence of chemical substance: 1.7
Yeast gene YGR213C
  The level of expressed mRNA in the presence of chemical substance/The level of expressed mRNA in the absence of chemical substance: 8.5
Yeast gene YGR257C
  The level of expressed mRNA in the presence of chemical substance/The level of expressed mRNA in the absence of chemical substance: 1.3
Yeast gene YGR287C, ratio of DNA chip fluorescence intensity to that without chemical substance
  The level of expressed mRNA in the presence of chemical substance/ (in its absence), gene YGR287C: 1.1
Yeast gene YGR288W, ratio of DNA chip fluorescence intensity to that without chemical substance
  The level of expressed mRNA in the presence of chemical substance/ (in its absence), gene YGR288W: 1.3
Yeast gene YHL028W
  The level of expressed mRNA in the presence of chemical substance/ (ratio to absence of chemical substance): 2.5
Yeast gene YHL046C
  The level of expressed mRNA in the presence of chemical substance/ (ratio to absence of chemical substance): 0.9
Yeast gene YHR004C
  The level of expressed mRNA in the presence of chemical substance/The level of expressed mRNA in the absence of chemical substance: 1.6
Yeast gene YHR071W
  The level of expressed mRNA in the presence of chemical substance/The level of expressed mRNA in the absence of chemical substance: 1.0
Yeast gene YHR139C
  The level of expressed mRNA in the presence of chemical substance/The level of expressed mRNA in the absence of chemical substance: 1.3
Yeast gene YHR142W
  The level of expressed mRNA in the presence of chemical substance/The level of expressed mRNA in the absence of chemical substance: 1.3
Yeast gene YHR210C, ratio of DNA chip fluorescence intensity to that without chemical substance
  The level of expressed mRNA in the presence of chemical substance/ (in its absence), gene YHR210C: 1.2
Yeast gene YIL006W, ratio of DNA chip fluorescence intensity to that without chemical substance
  The level of expressed mRNA in the presence of chemical substance/ (in its absence), gene YIL006W: 0.9
Yeast gene YIL011W
  The level of expressed mRNA in the presence of chemical substance/ (ratio to absence of chemical substance): 0.8
Yeast gene YIL123W
  The level of expressed mRNA in the presence of chemical substance/The level of expressed mRNA in the absence of chemical substance: 1.0

From patent US20050112573A1, “Method of detecting toxic substance” (priority 2001, published 2005)
